Here are results for 61 compounds from a melting point compilation (Tetko et al.; mined from patent text by program, amines drawn as free bases though some values may be those of a salt).

Structures are written as SMILES. Where only a bound is given, the exact number is not on record here.

As a reminder, the melting point is the temperature of the solid-liquid transition. As for `CS(=O)(=O)c1ccc(-c2cnn(-c3ccc(F)cc3)c(=O)c2Cc2ccc(F)cc2)cc1`, the melting point was 175 to 177 °C. Regarding `N#Cc1cnc2cc3cc(O)c(O)cc3cc2c1Nc1ccc(Cl)cc1Cl`, the melting point is more than 260 °C. Compound `N#CCCNC(=O)c1n[nH]cc1NC(=O)c1cc(Cl)ccn1` had a melting point of 261 to 263 °C. For `CO/C=C1/C(=O)NC(=O)c2ccc(-n3cccc3)cc21` the value was 272 to 273 °C; for `CNC(=O)NC(=O)C(CC1CCCC1)c1ccc(S(C)(=O)=O)c([N+](=O)[O-])c1` (stereo unspecified), 241 to 242 °C.

`CCOP(=O)(Cc1ccc(NC(=S)Nc2cc(-c3cc4cc(F)c(F)cc4[nH]3)ccc2OC)cc1)OCC` had a melting point of 180 to 182 °C. `COc1ccc(-c2[nH]nc3c2C(=O)c2c(NC(=O)NNC(=O)CCCc4ccccc4)cccc2-3)cc1` displayed a melting point of 269 °C. `CCCCCc1ccc(-c2ncc([C@H]3CC[C@H](CCC)CC3)cn2)cc1` registered a melting point of 93.5 °C. For `CCCC(=NOCC)C1=C(O)CC(C2(C)CC(C(C)C)=NO2)CC1=O` (stereo unspecified) the value was 85 °C.

Compound `CC12CCCCC1(O)CCC1C2CCC2(C)C1CC13OCCOC12OCCO3` (stereo unspecified) registered a melting point of 160 to 162 °C. `CS(=O)(=O)Nc1cccc(-c2ccc(S(=O)(=O)n3ccc(C=CC(=O)NO)c3)cc2)c1` gave a melting point of 137 to 148 °C. In the case of `CCCNC(=O)C(C)=Cc1ccc2c(c1)c(Cc1ccc(C(=O)OC)cc1OC)cn2CC(=O)N(C)C` it was 117 to 118 °C. In the case of `CC(C)Nc1cccnc1N1CCN(C(=O)c2ccc(C(=O)Nc3nncs3)cn2)CC1` it was 260 to 262 °C. For `CCCCCCCCCCCCCCOc1ccc(OCc2ccccc2)c(C(=O)N(CC(=O)OCC)CC(=O)OCC)c1` the value was 49 to 50 °C; for `Cc1nnc2ccc(-c3cccc(F)c3)nn12`, 184 to 186 °C; for `Cn1cc(-c2cccc(C(F)(F)F)c2)c(=O)c(C2CC=CCC2)c1` (stereo unspecified), 194 to 195 °C. On to `CN1CCN(C(=O)CCC(=O)c2ccc3[nH]c4nc(Cl)ccc4c3c2)CC1`, for which the melting point is 236 °C.

On to `O=C(CCNC(=O)OCc1ccccc1)NC1C(C(=O)O)OC(n2cnc3c(NC(=O)c4ccccc4)ncnc32)C1O` (stereo unspecified), for which the melting point fell in the range of 136 to 141 °C. As to `O=C(Nc1ccccc1)C1=C(O)c2ccccc2N(c2ccccc2)C1`, the melting point came to 120 °C. Turning to `CC(=O)OC1CCC2C3C(Sc4ccc(Br)cc4)C(=O)c4cc(O)ccc4C3CCC12C` (stereo unspecified), the melting point fell in the range of 190 to 192 °C.

Consider `FCc1ccc(-c2ccc(-c3cn([C@H]4CN5CCC4CC5)nn3)s2)cc1`, for which the melting point was determined as 199 °C. In the case of `CS(=O)(=O)c1ccc(-c2cc(F)c(F)cc2-c2ccc(F)c(Cl)c2)cc1` it was 172 °C; in that of `Cc1c(-c2ccc(=O)[nH]c2)cccc1[N+](=O)[O-]`, 214 to 216 °C. `CN(c1cc(F)c(C#N)cc1F)c1nnnn1-c1ccc(F)cc1` yielded a melting point of 162 °C. In turn, `CCOc1nc2ccccc2nc1NC(=O)N1CCN(c2cc(OC)cc(OC)c2)CC1` displayed a melting point of 149 to 150 °C.

Compound `COC(CCc1cc(C(F)(F)F)cc(C(F)(F)F)c1)C(Cc1csc2ccccc12)NC(C)=O` (stereo unspecified) came in with a melting point of 120 to 121 °C. For `Cc1oc(-c2ccc3ccccc3c2)nc1COc1ccc(/C=C/CO)cc1` the value was 159 to 160 °C; for `C=C(CN(C)C)C(O)c1ncc2c(c1O)COC2c1ccccc1` (stereo unspecified), 210 to 215 °C.

`CN(c1nc(=O)n(C)cc1F)S(=O)(=O)Cc1ccccc1` registered a melting point of 159 to 160 °C. For `O=S1(=O)c2ccccc2N(c2ccc(-c3nc4ccccc4n3-c3ccccc3)cc2)c2ccccc21` the value was 286 to 288 °C; for `CN1CCC(OC(c2cccc(N=[N+]=[N-])c2)c2nc3ccccc3[nH]2)CC1` (stereo unspecified), 53 °C; for `CC(C)(C)OC(=O)C(=O)C=[N+]=[N-]`, 100 °C. For `COC(=O)C1=C(O)c2ccc3ccccc3c2S(=O)(=O)N1C` the value was 229 to 230 °C.

In turn, `O=S(=O)(NN=C(Cl)c1ccc(F)cc1Cl)c1ccccc1` yielded a melting point of 133 to 135 °C. For `CNCCOc1cccc2c1c1cc(C)ccc1n2Cc1ccccc1` the value was 96 to 96.8 °C; for `OCCOc1cn(-c2ccc(F)cc2)c2ccc(Cl)cc12`, 118 to 120 °C.

As to `N#Cc1ccc2nc(C(=O)NCc3cccc(CNC(=O)c4nc[nH]n4)c3)[nH]c(=O)c2c1`, the melting point was in the range of 218 to 219 °C. For `O=C(Nc1nc(C(F)(F)F)c(I)s1)c1cccs1`, the melting point fell in the range of 184 to 185 °C. As for `Cc1nc(-c2ccccc2)nc(-c2cccc([N+](=O)[O-])c2)c1C(=O)OCCO`, the melting point lay in the range of 84 to 86 °C. In the case of `CC1(C)CCn2c(nc(-c3ccncn3)cc2=O)N1CC(=O)c1ccccc1` it was 203 to 205 °C; in that of `CN1C(=O)C(c2ccncc2)(c2cccc(-c3cc(F)ccc3F)c2)N=C1N` (stereo unspecified), 200 to 202 °C. `c1ccc2c(c1)Cc1sccc1CN2` showed a melting point of 86 °C. For `Cc1nc(-c2ccc(-c3ccc(C(=O)Nc4ccc(Br)c(OCCN(C)C)c4)cc3)c(C)c2)no1` the value was 138 to 140 °C.

As for `OCc1nnc(-c2ccc(-c3ccccc3)cc2)n1-c1ccccc1F`, the melting point was in the range of 220 to 223 °C.

`COCCOc1cc2ncnc(NC3=CC(=O)C(NCc4cccc(C)c4)=CC3=O)c2cc1OC` yielded a melting point of 241 to 242 °C. In the case of `CCOC(=O)C=CC(=S)c1ccc(-c2ccccc2)cc1` it was 74 to 75 °C. In the case of `OCc1cnoc1-c1ccc(-c2ccccc2)cc1` it was 108 to 110 °C; in that of `COc1ccc(Oc2ccc(C#CC(C)N(O)C(N)=O)s2)cc1` (stereo unspecified), 137 to 138 °C. In the case of `CCCCC(=O)Nc1c(C(=O)c2ccccc2)[nH]c2cc(Cl)ccc12` it was 140 to 143 °C.

As to `C=C1C(=C)C2OC1c1cc3c(OC)ccc(OC)c3cc12`, the melting point lay within 205 to 206 °C. In the case of `CC(=O)OCC1OC(n2cc(C(Cl)=CI)c(=O)[nH]c2=O)C(OC(C)=O)C1OC(C)=O` (stereo unspecified) it was 85 to 87 °C. In the case of `COc1ccc(CN(CC2CCOCC2)S(=O)(=O)c2ccc(Cl)cc2)cc1C(=O)O` it was 158 to 159 °C; in that of `CCCCCCCCCCN=C=S`, 71 to 72 °C; in that of `OC(CCc1cccnc1)COc1ccc(CCc2ccccc2)cc1` (stereo unspecified), 95 to 96 °C. For `COc1ccnc(-c2cccs2)c1` the value was 43 to 45 °C; for `CC1CC(=O)c2cc(Cl)cc(Cl)c2O1` (stereo unspecified), 98 to 102 °C; for `O=C1OCCCC1=Cc1ccccc1OCC(O)CN1CCC(c2ccc3ccccc3c2)CC1` (stereo unspecified), 142 to 144 °C. `COc1cccc(C=Cc2nc3c(s2)N(S(C)(=O)=O)CCC3)c1OC` had a melting point of 134 to 136 °C. In the case of `CCCc1nc2c(N)nc(C)c(C)c2n1CCCCCS(=O)(=O)c1ccccn1` it was 143 to 144 °C; in that of `COc1nc2c(Cl)c(Cl)c(Cl)c(Cl)c2n1COCCO`, 139 °C; in that of `CCN(CC)C(=O)Nc1ccc(Cn2c(=O)n(C3CCCCC3)c3cc(Cl)ccc32)c(OC)c1`, 190 °C.
